Measured values: patent publication US20050137182A1, “Novel crystalline form of cefdinir” (priority 2003, published 2005)
Where “and” joins values, the source holds several entries; their conditions need not be identical. Equal values may be shown once. Entries after “also recorded” stand apart in the source; their conditions may differ. Values belong to the compound of their own block, whether it stands above or below them.

How the values were obtained:
Assay type in all cases: physicochemical
[1] = Accelerated storage stability, 40° C. ± 2° C./75% RH ± 5% RH; conditions: for Assay (% w/w, by HPLC OAB), % change / Total RS (% area normalization, by HPLC) / Assay (% w/w, by HPLC OAB): accelerated 40° C. ± 2° C./75% RH ± 5% RH
[2] = Real time storage stability, 25° C. ± 2° C./60% RH ± 5% RH; conditions: for Assay (% w/w, by HPLC OAB), % change / Total RS (% area normalization, by HPLC) / Assay (% w/w, by HPLC OAB): real time 25° C. ± 2° C./60% RH ± 5% RH
[3] = Stress stability study, HPLC purity and assay before and after; conditions: 60° C.±2° C. for 15 days
Description: Stress stability studies of cefdinir crystal B were performed by keeping samples of cefdinir crystal B under the conditions of 60° C.±2° C. for 15 days, and the purity and assay of the samples were determined before and after the stress test by high performance liquid chromatography. […] Table 3 summaries the results of the stress test studies.

[4] = 1 Month, listed as Crystal B Sample 1
[5] = 2 Months, listed as Crystal B Sample 1
[6] = 2 Months, listed as Crystal B Sample 2
[7] = 3 Months, listed as Crystal B Sample 1
[8] = 3 Months, listed as Crystal B Sample 2
[9] = Initial, listed as Crystal B Sample 1
[10] = Initial, listed as Crystal B Sample 2

Assay (% w/w, by HPLC OAB), % change ([1]; 1 Month): −0.5%
Total RS (% area normalization, by HPLC) ([1]; 1 Month): 1.98 % area
Assay (% w/w, by HPLC OAB), % change ([1]; 2 Months): −1.6%
Total RS (% area normalization, by HPLC) ([1]; 2 Months): 2.25 % area
Assay (% w/w, by HPLC OAB), % change ([1]; 3 Months): −1.8%
Total RS (% area normalization, by HPLC) ([1]; 3 Months): 2.06 % area
Assay (% w/w, by HPLC OAB) ([1]; Initial): 96.3 % w/w
Total RS (% area normalization, by HPLC) ([1]; Initial): 0.82 % area
Change in the assay ([1]; after 3 months under accelerated storage conditions): about 1.8%
Assay (% w/w, by HPLC OAB), % change ([2]; 3 Months): −0.2%
Total RS (% area normalization, by HPLC) ([2]; 3 Months): 1.18 % area
Stability under normal storage conditions compared with the other crystal form (in words) ([2]; 25° C.±2° C./60% RH±5% RH, 3 months): as stable as crystal B
Assay (% w/w, by HPLC OAB) ([2]; Initial): 96.3 % w/w
Total RS (% area normalization, by HPLC) ([2]; Initial): 0.82 % area
SMILES: C=CC1=C(C(=O)O)N2C(=O)[C@@H](NC(=O)/C(=N\O)c3csc(N)n3)[C@H]2SC1 [Cefdinir Crystal A, 7β-[(Z)-2-(2-amino-4-thiazolyl)-2-hydroxyiminoacetamido]-3-vinyl-3-cephem-4-carboxylic acid, reference compound]

Assay (by HPLC on anhydrous basis, % change) [3]: 0%
Degradation in stress test (in words) [3]: did not degrade
Purity (by HPLC, % change) [3]: −0.21% and −0.33%
Assay (% w/w, by HPLC OAB), % change [1, 4]: 0.0%
Total RS (% area normalization, by HPLC) [1, 4]: 0.72 % area
Total RS (% area normalization, by HPLC) ([1]; 1 Month, listed as Crystal B Sample 2): 0.70 % area
Assay (% w/w, by HPLC OAB), % change [1, 5]: 0.0%
Total RS (% area normalization, by HPLC) [1, 5]: 1.10 % area
Assay (% w/w, by HPLC OAB), % change [1, 6]: 0.0%
Total RS (% area normalization, by HPLC) [1, 6]: 0.92 % area
Assay (% w/w, by HPLC OAB), % change [1, 7]: −0.1%
Total RS (% area normalization, by HPLC) [1, 7]: 0.90 % area
Assay (% w/w, by HPLC OAB), % change [1, 8]: −0.2%
Total RS (% area normalization, by HPLC) [1, 8]: 1.08 % area
Assay (% w/w, by HPLC OAB) [1, 9]: 99.9 % w/w
Total RS (% area normalization, by HPLC) [1, 9]: 0.64 % area
Assay (% w/w, by HPLC OAB) [1, 10]: 99.4 % w/w
Total RS (% area normalization, by HPLC) [1, 10]: 0.59 % area
Amount of compound that degrades ([1]; over a period of at least 3 months under accelerated storage conditions): ≤ 0.5%
Assay (% w/w, by HPLC OAB), % change [2, 7]: 0.0%
Total RS (% area normalization, by HPLC) [2, 7]: 0.53 % area
Assay (% w/w, by HPLC OAB), % change [2, 8]: 0.0%
Total RS (% area normalization, by HPLC) [2, 8]: 0.61 % area
Assay (% w/w, by HPLC OAB) [2, 9]: 99.9 % w/w
Total RS (% area normalization, by HPLC) [2, 9]: 0.64 % area
Assay (% w/w, by HPLC OAB) [2, 10]: 99.4 % w/w
Total RS (% area normalization, by HPLC) [2, 10]: 0.59 % area
SMILES: C=CC1=C(C(=O)O)N2C(=O)[C@@H](NC(=O)/C(=N\O)c3csc(N)n3)[C@H]2SC1 [Cefdinir Crystal B, 7β-[(Z)-2-(2-amino-4-thiazolyl)-2-hydroxyiminoacetamido]-3-vinyl-3-cephem-4-carboxylic acid]
Stability under accelerated storage conditions compared with the other crystal form (in words) ([1]; about 40° C., about 75% RH, up to 3 months): increased storage stability; also recorded: superior stability
